The text below walks through data of US20050282755A1, “Compositions having antimicrobial activity and uses thereof” (priority 2004, published 2005).

Common to all, as to type: cell-based
Assay [1] has as its system Staphylococcus aureus ATCC 29213. As to the kind of experiment: MIC, NCCLS M7-A6 broth microdilution, cation-adjusted Mueller Hinton broth (Table 9, no superscript). Particulars: ATCC 29213. In a few lines:
(§1)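 MIC determined by microdilution in cation-adjusted Mueller Hinton broth after overnight growth at 37° C, defined as the lowest peptide level lacking turbidity.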
A general note: Broth dilution looks for growth in wells or tubes with falling amounts of substance.

Assay [2] has as its system Staphylococcus epidermidis ATCC 12228. Nature of the assay: MIC, NCCLS M7-A6 broth microdilution (Table 9, no superscript). To be noted: ATCC 12228. The method, boiled down: as §1
In the next assay the test system is Salmonella dublin (Lane). The description is as above. In a few lines:
as §1

Assay [3] concerns Pseudomonas aeruginosa ATCC 27853. The assay is described as above. To be noted: ATCC 27853. The method, boiled down: as §1
The test system of assay [4] is Escherichia coli ATCC 25922. Described as above. Particulars: ATCC 25922. In a few lines:
as §1

In brackets after ≈: the same amount, converted by molar mass. Non-standard residues stand in square brackets, D forms with d. Residues, ends and D or L forms follow the SMILES beside them. *: point of attachment. Palmitoyl = CCCCCCCCCCCCCCCC(=O)*; Octanoyl = CCCCCCCC(=O)*; Hexanoyl = CCCCCC(=O)* Some results are limits rather than exact numbers.

Turning to `CCCCCCCC(=O)NCCCC[C@H](NC(=O)[C@H](CCCNC(=N)N)NC(=O)[C@H](CCSC)NC(=O)[C@H](Cc1ccccc1)NC(=O)[C@H](CC(N)=O)NC(=O)[C@H](CCCNC(=N)N)NC(=O)[C@H](C)NC(=O)[C@@H](NC(=O)[C@H](CC(=O)O)NC(=O)[C@H](CCCNC(=N)N)NC(=O)[C@H](Cc1c[nH]c2ccccc12)NC(=O)[C@H](CCCNC(=N)N)NC(=O)[C@H](CO)NC(=O)[C@@H](N)CCCNC(=N)N)C(C)C)C(N)=O` [Peptide 184, H2N-RSRWRDVARNFMRK(Octanyl)-NH2] (H-RSRWRDVARNFMRK(Octanoyl)-NH2), the “MIC S. aureus” value in assay [1] stood at 64 µg/mL (≈ 31.9 µM). For the same compound, in assay [2], the “MIC S. epidermidis” value was 2 µg/mL (≈ 0.998 µM). For the same compound, the “MIC S. dublin” value against Salmonella dublin (Lane) came to 16 µg/mL (≈ 7.99 µM). Moreover, the “MIC P. aeruginosa” value in assay [3] is above 64 µg/mL. Further, in assay [4], the “MIC E. coli” value is 16 µg/mL (≈ 7.99 µM).

In the case of `CCCCCC(=O)N[C@H](CCCNC(=N)N)C(=O)N[C@H](CO)C(=O)N[C@H](CCCNC(=N)N)C(=O)N[C@H](Cc1c[nH]c2ccccc12)C(=O)N[C@H](CCCNC(=N)N)C(=O)N[C@H](CC(=O)O)C(=O)N[C@@H](C(=O)N[C@H](C)C(=O)N[C@H](CCCNC(=N)N)C(=O)N[C@H](CC(N)=O)C(=O)N[C@H](Cc1ccccc1)C(=O)N[C@H](CC(C)C)C(=O)N[C@H](CCCNC(=N)N)C(N)=O)C(C)C` [Peptide 188, Hexyl-rsrwrdvarnflr-NH2] (Hexanoyl-[dR][dS][dR][dW][dR][dD][dV][dA][dR][dN][dF][dL][dR]-NH2), the “MIC S. aureus” value in assay [1] was above 64 µg/mL. In assay [2], the “MIC S. epidermidis” value worked out at 16 µg/mL (≈ 8.75 µM). Also, the “MIC S. dublin” value against Salmonella dublin (Lane) is above 64 µg/mL. For the same compound, in assay [3], the “MIC P. aeruginosa” value was above 64 µg/mL. The “MIC E. coli” value in assay [4] was 64 µg/mL (≈ 35 µM).

Regarding `CCCCCCCC(=O)N[C@H](CCCNC(=N)N)C(=O)N[C@H](CO)C(=O)N[C@H](CCCNC(=N)N)C(=O)N[C@H](Cc1c[nH]c2ccccc12)C(=O)N[C@H](CCCNC(=N)N)C(=O)N[C@H](CC(=O)O)C(=O)N[C@@H](C(=O)N[C@H](C)C(=O)N[C@H](CCCNC(=N)N)C(=O)N[C@H](CC(N)=O)C(=O)N[C@H](Cc1ccccc1)C(=O)N[C@H](CC(C)C)C(=O)N[C@H](CCCNC(=N)N)C(N)=O)C(C)C` [Peptide 189, Octyl-rsrwrdvarnflr-NH2] (Octanoyl-[dR][dS][dR][dW][dR][dD][dV][dA][dR][dN][dF][dL][dR]-NH2), the “MIC S. aureus” value in assay [1] amounted to 32 µg/mL (≈ 17.2 µM). The “MIC S. epidermidis” value in assay [2] was determined as 4 µg/mL (≈ 2.15 µM). Further, the “MIC S. dublin” value in the assay on Salmonella dublin (Lane) was determined as 8 µg/mL (≈ 4.31 µM). Also, the “MIC P. aeruginosa” value in assay [3] was found to be 32 µg/mL (≈ 17.2 µM). Also, the “MIC E. coli” value in assay [4] was found to be 16 µg/mL (≈ 8.62 µM).

Consider `CCCCCCCCCCCCCCCC(=O)N[C@H](CCCNC(=N)N)C(=O)N[C@H](CO)C(=O)N[C@H](CCCNC(=N)N)C(=O)N[C@H](Cc1c[nH]c2ccccc12)C(=O)N[C@H](CCCNC(=N)N)C(=O)N[C@H](CC(=O)O)C(=O)N[C@@H](C(=O)N[C@H](C)C(=O)N[C@H](CCCNC(=N)N)C(=O)N[C@H](CC(N)=O)C(=O)N[C@H](Cc1ccccc1)C(=O)N[C@H](CC(C)C)C(=O)N[C@H](CCCNC(=N)N)C(N)=O)C(C)C` [Peptide 191, Palmitoyl-rsrwrdvarnflr-NH2] (Palmitoyl-[dR][dS][dR][dW][dR][dD][dV][dA][dR][dN][dF][dL][dR]-NH2), for which, in assay [1], the “MIC S. aureus” value was determined as 64 µg/mL (≈ 32.5 µM). Besides, the “MIC S. epidermidis” value in assay [2] was 4 µg/mL (≈ 2.03 µM). The “MIC S. dublin” value with Salmonella dublin (Lane) is 8 µg/mL (≈ 4.06 µM). For the same compound, the “MIC P. aeruginosa” value in assay [3] was above 64 µg/mL. Further, the “MIC E. coli” value in assay [4] stood at 64 µg/mL (≈ 32.5 µM).
